Reference: patent publication US20090304756A1, “Method for the Encapsulation and Controlled Release of Poorly Water-Soluble (Hyprophobic) Liquid and Solid Active Ingredients” (priority 2005, published 2009)

Key:
[1] = Perylene concentration in particle interior by confocal fluorescence microscopy; format: physicochemical; settings: C18 silica templates 5 μm, pore 6 nm, PAH/PSS LbL coated; self-quenching may feign lower concentration
Procedure: 12.5 mg of the model dye perylene were dissolved in 6 ml of chloroform. A suspension of 100 mg of spherical, porous silica templates (diameter 5 μm, pore size 6 nm) in 1 ml of chloroform was added thereto. The surface of the templates is hydrophobically modified with C18 alkyl chains (RP 18, chromatography material). The solvent was evaporated at 40° C. in a drying cabinet with stirring. The powder which remained was resuspended in water with the help of 1% sodium dodecyl sulphate (SDS). […] Besides the fluorescence of the perylene in the particles, a few larger (and lighter) crystals of the pure dye can also be seen which no longer arise when using smaller fill amounts. The SDS solution was centrifuged off and the particles were incubated with 500 μl of a solution of 1 g/l Cy5 labelled poly(allylamine hydrochloride) (PAH-Cy5, MW 70000 g/mol), pH 6.5 and 0.5 M NaCl for 20 min with brief application of ultrasound. After washing the particles three times with water, 500 μl of a solution of 1 g/l of poly(sodium 4-styrenesulphonate) (PSS, MW 70000 g/mol) in 0.5 M NaCl with pH 6.1 are added. […]
The concentration of the perylene in the interior of the particles was determined via the fluorescence by confocal microscopy by reference to comparison solutions. […]

[2] = Amount of imidacloprid in particles, release into excess methanol with UV/vis analysis of supernatant; format: physicochemical; settings: silica templates 5 μm, pore 6 nm, PSS/PAH coated; released in large excess of methanol
Procedure: 25 mg of the somewhat water-soluble active ingredient imidacloprid were dissolved in 3 ml of acetone, and 100 mg of spherical, porous silica templates (diameter 5 μm, pore size 6 nm) were added. After incubation for 30 min, water was added stepwise until the solution reached saturation of imidacloprid, evident from further considerable cloudiness. The supernatant was centrifuged off and the particles were suspended with 1% SDS solution. In this connection, here and in all of the following washing and coating solutions, imidacloprid saturated solutions were used in order to prevent a dissolving out from the particles. After the coating with PSS and PAH (analogously to Example 1), separate particles filled with 15% m/m (mass of imidacloprid/mass of particles) were obtained (FIG. 3). The amount of imidacloprid was determined by releasing the active ingredient in a large excess in methanol with subsequent UV/vis spectroscopic analysis of the supernatant.

SMILES	concentration of perylene in the interior of the particles [1]	filling (mass of imidacloprid/mass of particles) [2]
c1cc2cccc3c4cccc5cccc(c(c1)c23)c54 [perylene]	8.5 mg of perylene per 100 mg of particles	–
O=[N+]([O-])NC1=NCCN1Cc1ccc(Cl)nc1 [imidacloprid]	–	15 % m/m
